In US20230295118A1 (EnhancedBio Inc., priority 2022, published 2023):

Legend:
Format in all cases: cell-based
[1] = tested on: mantle cell lymphoma cell (Mino or JeKo-1); experiment: Antiproliferative effect, MTS cell viability assay; conditions: 72 h; for IC50: mantle cell lymphoma cell (Mino or JeKo-1), MTS assay, read-out: IC50 (anti-proliferation); for inhibition of cell proliferation of Mino cells: 0-1 μM, result in words
Procedure, shortened: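 Mino cells treated with compounds at 0, 0.0001, 0.001, 0.01, 0.1, 1 μM for 72 h; palbociclib and abemaciclib as positive controls. Viability by MTS, formazan absorbance read at 490 nm.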

[2] = biological target: T1, CDK4 (Homo sapiens, UniProt P11802); experiment: CDK4 degradation (DC50, Dmax)
T1 construct: endogenous in cells

[3] = biological target: T2, CDK6 (Homo sapiens, UniProt Q00534); experiment: CDK6 degradation (DC50, Dmax)
T2 construct: endogenous in cells
T2 sequence (Q00534 whole entry): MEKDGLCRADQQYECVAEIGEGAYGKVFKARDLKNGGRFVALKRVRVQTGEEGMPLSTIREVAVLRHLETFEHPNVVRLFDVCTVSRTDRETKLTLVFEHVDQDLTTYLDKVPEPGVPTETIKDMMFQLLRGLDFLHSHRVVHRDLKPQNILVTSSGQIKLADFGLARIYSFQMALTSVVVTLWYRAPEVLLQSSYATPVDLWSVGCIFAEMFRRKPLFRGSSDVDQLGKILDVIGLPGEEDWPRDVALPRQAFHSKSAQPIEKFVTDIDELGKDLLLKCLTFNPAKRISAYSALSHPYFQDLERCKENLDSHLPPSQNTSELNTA

T1 sequence (P11802 whole entry): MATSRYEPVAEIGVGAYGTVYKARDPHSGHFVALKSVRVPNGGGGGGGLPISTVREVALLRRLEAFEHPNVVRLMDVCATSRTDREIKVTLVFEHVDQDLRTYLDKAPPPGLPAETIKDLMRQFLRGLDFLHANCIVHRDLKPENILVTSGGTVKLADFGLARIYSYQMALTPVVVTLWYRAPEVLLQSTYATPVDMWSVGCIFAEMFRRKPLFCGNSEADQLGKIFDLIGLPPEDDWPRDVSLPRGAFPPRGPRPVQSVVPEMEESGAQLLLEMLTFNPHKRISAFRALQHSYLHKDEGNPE

SMILES	IC50 [1] [nM]	DC50 [2] [nM]	Dmax [2] [%]	DC50 [3] [nM]	Dmax [3] [%]	inhibition of cell proliferation of Mino cells [1]
CC(=O)c1c(C)c2cnc(Nc3ccc(N4CCN(CCC5CCN(C(=O)Nc6ccc7c(c6)C(=O)N(C6CCC(=O)NC6=O)C7=O)CC5)CC4)cn3)nc2n(C2CCCC2)c1=O (centres unmarked) [Compound 45, 4-(2-(4-(6-((6-acetyl-8-cyclopentyl-5-methyl-7-oxo-7,8-dihydropyrido[2,3-d]pyrimidin-2-yl)amino)pyridin-3-yl)piperazin-1-yl)ethyl)-N-(2-(2,6-dioxopiperidin-3-yl)-1,3-dioxoisoindolin-5-yl)piperidine-1-carboxamide]	50 to 200	50 to 200	> 60	50 to 200	> 60	
CC(=O)c1c(C)c2cnc(Nc3ccc(N4CCN(CCC5CCN(C(=O)Nc6ccc7c(c6)CN(C6CCC(=O)NC6=O)C7=O)CC5)CC4)cn3)nc2n(C2CCCC2)c1=O (centres unmarked) [Compound 46, 4-(2-(4-(6-((6-acetyl-8-cyclopentyl-5-methyl-7-oxo-7,8-dihydropyrido[2,3-d]pyrimidin-2-yl)amino)pyridin-3-yl)piperazin-1-yl)ethyl)-N-(2-(2,6-dioxopiperidin-3-yl)-1-oxoisoindolin-5-yl)piperidine-1-carboxamide]	50 to 200	> 200	> 60	50 to 200	> 60	
CC(=O)c1c(C)c2cnc(Nc3ccc(N4CCN(CCNc5ccc6c(c5)C(=O)N(C5CCC(=O)NC5=O)C6=O)CC4)cn3)nc2n(C2CCCC2)c1=O (centres unmarked) [Compound 47, 5-((2-(4-(6-((6-acetyl-8-cyclopentyl-5-methyl-7-oxo-7,8-dihydropyrido[2,3-d]pyrimidin-2-yl)amino)pyridin-3-yl)piperazin-1-yl)ethyl)amino)-2-(2,6-dioxopiperidin-3-yl)isoindoline-1,3-dione]	< 50	< 50	> 80	< 50	> 80	dose-dependent inhibition of cell proliferation
CC(=O)c1c(C)c2cnc(Nc3ccc(N4CCN(CCCNc5ccc6c(c5)CN(C5CCC(=O)NC5=O)C6=O)CC4)cn3)nc2n(C2CCCC2)c1=O (centres unmarked) [Compound 50, 3-(5-((3-(4-(6-((6-acetyl-8-cyclopentyl-5-methyl-7-oxo-7,8-dihydropyrido[2,3-d]pyrimidin-2-yl)amino)pyridin-3-yl)piperazin-1-yl)propyl)amino)-1-oxoisoindolin-2-yl)piperidine-2,6-dione]	< 50	< 50	> 80	< 50	> 80	dose-dependent inhibition of cell proliferation

Continued, in another order:

IC50 [1] [nM]	DC50 [2] [nM]	Dmax [2] [%]	DC50 [3] [nM]	Dmax [3] [%]	SMILES	inhibition of cell proliferation of Mino cells [1]
< 50	< 50	> 80	< 50	> 80	CC(=O)c1c(C)c2cnc(Nc3ccc(N4CCN(CCNc5ccc6c(c5)CN(C5CCC(=O)NC5=O)C6=O)CC4)cn3)nc2n(C2CCCC2)c1=O (centres unmarked) [Compound 48, 3-(5-((2-(4-(6-((6-acetyl-8-cyclopentyl-5-methyl-7-oxo-7,8-dihydropyrido[2,3-d]pyrimidin-2-yl)amino)pyridin-3-yl)piperazin-1-yl)ethyl)amino)-1-oxoisoindolin-2-yl)piperidine-2,6-dione]	
< 50	50 to 200	> 80	50 to 200	> 80	CC(=O)c1c(C)c2cnc(Nc3ccc(N4CCN(CCCNc5cc6c(cc5F)C(=O)N(C5CCC(=O)NC5=O)C6=O)CC4)cn3)nc2n(C2CCCC2)c1=O (centres unmarked) [Compound 51, 5-((3-(4-(6-((6-acetyl-8-cyclopentyl-5-methyl-7-oxo-7,8-dihydropyrido[2,3-d]pyrimidin-2-yl)amino)pyridin-3-yl)piperazin-1-yl)propyl)amino)-2-(2,6-dioxopiperidin-3-yl)-6-fluoroisoindoline-1,3-dione]	
